Experimental data reported in patent US12310236B2, “Encapsulant preventing lead leakage on perovskite, method for encapsulating perovskite to prevent lead leakage and perovskite photosensitive device comprising the same” (PUKYONG NATIONAL UNIVERSITY INDUSTRY—UNIVERSITY COOPERATION …, priority 2023, dated 2025).

Experiment: Solvent solubility of the crown ether compounds in the coating solution
Assay type: physicochemical
Details: ethanol coating solution
Experimental: We prepared a coating solution for performing the perovskite encapsulating method. 18-crown-6-ether (hereafter, referred to as a raw material) was prepared as the crown ether. A compound (hereinafter, referred to as di-benzo) in which only two benzene rings are bonded to the crown ether was prepared as a comparative group. […] The di-benzo was dissolved in ethanol at 0.01 to 0.03% by weight. […] Thus, resulting solutions were prepared.

c1ccc2c(c1)OCCOCCOc1ccccc1OCCOCCO2 [di-benzo]
solvent solubility: ≤ 0.03 % by weight
